Calls of active or inactive are those of the source. The calls are words filed in the database; no cut-off is given here.
Tests used:
[1] = Stability of the compound in pH 7 solution; assay type: physicochemical; settings: buffer
[2] = Cytotoxicity against human A549 cells after 4 days by coulter counting method; assay type: cell-based
Plasmodium falciparum [3] = test: Inhibition of Plasmodium falciparum HGXPRT at 31 uM using PRib-PP as substrate in presence of guanine by spectrophotometric method
[4] = target: T1, Hypoxanthine-guanine phosphoribosyltransferase (Homo sapiens, UniProt P00492); test: Inhibition of N-terminal hexa-histidine-tagged human HGPRT using PRib-PP as substrate in presence of guanine by Hanes plot analysis
T1 sequence (P00492 whole entry): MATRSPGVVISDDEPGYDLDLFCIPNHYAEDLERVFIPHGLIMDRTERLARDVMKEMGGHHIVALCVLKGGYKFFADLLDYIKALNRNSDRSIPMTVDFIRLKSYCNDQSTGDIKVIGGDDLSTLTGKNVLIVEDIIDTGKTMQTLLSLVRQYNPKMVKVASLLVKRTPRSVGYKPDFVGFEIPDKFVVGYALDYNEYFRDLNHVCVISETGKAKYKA

Plasmodium vivax [5] = test: Inhibition of N-terminal hexa-histidine-tagged Plasmodium vivax HGPRT at 31 uM using PRib-PP as substrate in presence of guanine by spectrophotometric method
[6] = Inhibition of N-terminal hexa-histidine-tagged Plasmodium vivax HGPRT using PRib-PP as substrate in presence of guanine by Hanes plot analysis
Plasmodium vivax [7] = test: Inhibition of N-terminal hexa-histidine-tagged Plasmodium vivax HGPRT at 29 uM using PRib-PP as substrate in presence of guanine by spectrophotometric method
Plasmodium falciparum [8] = test: Inhibition of Plasmodium falciparum HGXPRT at 29 uM using PRib-PP as substrate in presence of guanine by spectrophotometric method
Plasmodium falciparum [9] = test: Antimalarial activity against Plasmodium falciparum D6 trophozoites assessed as reduction in [3H]-hypoxanthine incorporation preincubated for 96 hrs followed by [3H]-hypoxanthine addition at 48 hrs post start of experiment; assay type: functional
Plasmodium falciparum [10] = test: Antimalarial activity against chloroquine/pyrimethamine-resistant Plasmodium falciparum W2 trophozoites assessed as reduction in [3H]-hypoxanthine incorporation preincubated for 96 hrs followed by [3H]-hypoxanthine addition at 48 hrs post start of experiment; assay type: functional
Plasmodium falciparum [11] = test: Inhibition of Plasmodium falciparum HGXPRT at 35 uM using PRib-PP as substrate in presence of guanine by spectrophotometric method
[12] = target: T2, Hypoxanthine-guanine phosphoribosyltransferase (Homo sapiens) (UniProt P00492); test: Inhibition of N-terminal hexa-histidine-tagged human HGPRT at 35 uM using PRib-PP as substrate in presence of guanine by spectrophotometric analysis
T2 sequence (whole entry): T1 sequence (P00492 whole entry)

Plasmodium vivax [13] = test: Inhibition of N-terminal hexa-histidine-tagged Plasmodium vivax HGPRT at 35 uM using PRib-PP as substrate in presence of guanine by spectrophotometric method
[14] = Inhibition of Plasmodium falciparum HGXPRT using PRib-PP as substrate in presence of guanine by Hanes plot analysis
Plasmodium falciparum [15] = test: Inhibition of Plasmodium falciparum HGXPRT at 32 uM using PRib-PP as substrate in presence of guanine by spectrophotometric method
Plasmodium falciparum [16] = test: Inhibition of Plasmodium falciparum HGXPRT at 46 uM using PRib-PP as substrate in presence of guanine by spectrophotometric method
Plasmodium falciparum [17] = test: Inhibition of Plasmodium falciparum HGXPRT at 42 uM using PRib-PP as substrate in presence of guanine by spectrophotometric method
Plasmodium vivax [18] = test: Inhibition of N-terminal hexa-histidine-tagged Plasmodium vivax HGPRT at 42 uM using PRib-PP as substrate in presence of guanine by spectrophotometric method
[19] = target: T2, Hypoxanthine-guanine phosphoribosyltransferase (Homo sapiens); test: Inhibition of N-terminal hexa-histidine-tagged human HGPRT at 42 uM using PRib-PP as substrate in presence of guanine by spectrophotometric analysis

Structure (SMILES)	Stability [1]	CC50 at 96 h [2]	Ki [4]	Ki [6]	IC50 (Plasmodium falciparum [9])	IC50 (Plasmodium falciparum [10])	other results
CCOC(=O)[C@H](Cc1ccccc1)NP(=O)(CCOCC(COCCP(=O)(N[C@@H](Cc1ccccc1)C(=O)OCC)N[C@@H](Cc1ccccc1)C(=O)OCC)Cn1ccc2c(=O)[nH]cnc21)N[C@@H](Cc1ccccc1)C(=O)OCC	Stable	23 µM					
CCOC(=O)[C@H](Cc1ccccc1)NP(=O)(CCOCC(COCCP(=O)(N[C@@H](Cc1ccccc1)C(=O)OCC)N[C@@H](Cc1ccccc1)C(=O)OCC)Cn1c(Br)nc2c(=O)[nH]cnc21)N[C@@H](Cc1ccccc1)C(=O)OCC		43 µM					
O=c1[nH]cnc2c1ccn2CC(COCCP(=O)(O)O)COCCP(=O)(O)O			17 µM				inhibition (Plasmodium falciparum [3]): inactive; inhibition (Plasmodium vivax [5]): inactive
Nc1nc2c(ccn2CC(COCCP(=O)(O)O)COCCP(=O)(O)O)c(=O)[nH]1			1 µM	1.5 µM			
O=c1[nH]cnc2c1nc(Br)n2CC(COCCP(=O)(O)O)COCCP(=O)(O)O			9.7 µM				inhibition (Plasmodium vivax [7]): inactive; inhibition (Plasmodium falciparum [8]): inactive
CCOC(=O)[C@H](Cc1ccccc1)NP(=O)(CCOCC(COCCP(=O)(N[C@@H](Cc1ccccc1)C(=O)OCC)N[C@@H](Cc1ccccc1)C(=O)OCC)n1ccc2c(=O)[nH]cnc21)N[C@@H](Cc1ccccc1)C(=O)OCC	Stable	130 µM					
CCOC(=O)[C@H](Cc1ccccc1)NP(=O)(CCOCC(COCCP(=O)(N[C@@H](Cc1ccccc1)C(=O)OCC)N[C@@H](Cc1ccccc1)C(=O)OCC)Cn1ccc2c(=O)[nH]c(N)nc21)N[C@@H](Cc1ccccc1)C(=O)OCC	Stable	95 µM			0.8 µM	2.1 µM	
O=c1[nH]cnc2c1nc(Br)n2C(COCCP(=O)(O)O)COCCP(=O)(O)O							inhibition (Plasmodium falciparum [11]): inactive; inhibition [12]: inactive; inhibition (Plasmodium vivax [13]): inactive
Nc1nc2c(ncn2C(COCCP(=O)(O)O)COCCP(=O)(O)O)c(=O)[nH]1			0.3 µM	21 µM			Ki [14]: 0.2 µM
CCOC(=O)[C@H](Cc1ccccc1)NP(=O)(CCOCC(COCCP(=O)(N[C@@H](Cc1ccccc1)C(=O)OCC)N[C@@H](Cc1ccccc1)C(=O)OCC)n1c(Br)nc2c(=O)[nH]c(N)nc21)N[C@@H](Cc1ccccc1)C(=O)OCC					4.4 µM	7 µM	
CCOC(=O)[C@H](Cc1ccccc1)NP(=O)(CCOCC(COCCP(=O)(N[C@@H](Cc1ccccc1)C(=O)OCC)N[C@@H](Cc1ccccc1)C(=O)OCC)Cn1cnc2c(=O)[nH]c(N)nc21)N[C@@H](Cc1ccccc1)C(=O)OCC	Stable	> 300 µM			5.1 µM	6.9 µM	
Nc1nc2c(nc(Br)n2CC(COCCP(=O)(O)O)COCCP(=O)(O)O)c(=O)[nH]1			0.25 µM	1.6 µM			inhibition (Plasmodium falciparum [15]): inactive
CCOC(=O)[C@H](Cc1ccccc1)NP(=O)(CCOCC(COCCP(=O)(N[C@@H](Cc1ccccc1)C(=O)OCC)N[C@@H](Cc1ccccc1)C(=O)OCC)Cn1cnc2c(=O)[nH]cnc21)N[C@@H](Cc1ccccc1)C(=O)OCC	Stable	66 µM			1.7 µM	4.6 µM	
O=c1[nH]cnc2c1ncn2CC(COCCP(=O)(O)O)COCCP(=O)(O)O			1.5 µM	6 µM			inhibition (Plasmodium falciparum [16]): inactive
CCOC(=O)[C@H](Cc1ccccc1)NP(=O)(CCOCC(COCCP(=O)(N[C@@H](Cc1ccccc1)C(=O)OCC)N[C@@H](Cc1ccccc1)C(=O)OCC)n1c(Br)nc2c(=O)[nH]cnc21)N[C@@H](Cc1ccccc1)C(=O)OCC		278 µM					
O=c1[nH]cnc2c1ncn2C(COCCP(=O)(O)O)COCCP(=O)(O)O			3 µM	21 µM			Ki [14]: 0.7 µM
Nc1nc2c(nc(Br)n2CC(COCP(=O)(O)O)COCP(=O)(O)O)c(=O)[nH]1			4 µM	89 µM			Ki [14]: 1 µM
CCOC(=O)[C@H](Cc1ccccc1)NP(=O)(CCOCC(COCCP(=O)(N[C@@H](Cc1ccccc1)C(=O)OCC)N[C@@H](Cc1ccccc1)C(=O)OCC)n1cnc2c(=O)[nH]cnc21)N[C@@H](Cc1ccccc1)C(=O)OCC	Stable	> 300 µM			1.5 µM	1.7 µM	
O=c1[nH]cnc2c1ccn2C(COCCP(=O)(O)O)COCCP(=O)(O)O							inhibition (Plasmodium falciparum [17]): inactive; inhibition (Plasmodium vivax [18]): inactive; inhibition [19]: inactive
Nc1nc2c(ccn2C(COCCP(=O)(O)O)COCCP(=O)(O)O)c(=O)[nH]1			5 µM	49 µM			Ki [14]: 6 µM
Nc1nc2c(ncn2CC(COCCP(=O)(O)O)COCCP(=O)(O)O)c(=O)[nH]1			0.1 µM	0.16 µM			
CCOC(=O)[C@H](Cc1ccccc1)NP(=O)(CCOCC(COCCP(=O)(N[C@@H](Cc1ccccc1)C(=O)OCC)N[C@@H](Cc1ccccc1)C(=O)OCC)n1ccc2c(=O)[nH]c(N)nc21)N[C@@H](Cc1ccccc1)C(=O)OCC	Stable	> 300 µM			0.8 µM	1.1 µM	
CCOC(=O)[C@H](Cc1ccccc1)NP(=O)(CCOCC(COCCP(=O)(N[C@@H](Cc1ccccc1)C(=O)OCC)N[C@@H](Cc1ccccc1)C(=O)OCC)n1cnc2c(=O)[nH]c(N)nc21)N[C@@H](Cc1ccccc1)C(=O)OCC	Stable	> 300 µM			10 µM	9.4 µM	
CCOC(=O)[C@H](Cc1ccccc1)NP(=O)(CCOCC(COCCP(=O)(N[C@@H](Cc1ccccc1)C(=O)OCC)N[C@@H](Cc1ccccc1)C(=O)OCC)Cn1c(Br)nc2c(=O)[nH]c(N)nc21)N[C@@H](Cc1ccccc1)C(=O)OCC		94 µM			22.1 µM	21.3 µM	
Nc1nc2c(nc(Br)n2C(COCCP(=O)(O)O)COCCP(=O)(O)O)c(=O)[nH]1			19 µM	153 µM			Ki [14]: 4 µM

Reference: ChEMBL document CHEMBL4052668, “Synthesis and evaluation of symmetric acyclic nucleoside bisphosphonates as inhibitors of the Plasmodium falciparum, Plasmodium vivax and human 6-oxopurine phosphoribosyltransferases and the antimalarial activity of their prodrugs” (Bioorg Med Chem, 2017)
